# PubChem BioAssay AID1963975 (Molecular Pharmacology Branch, DTP, NCI, 2024)
# Tested on: 624824-186-R-J2-PDC multicell spheroids, viability
# Experiment: Anticancer human tumor 624824-186-R-J2-PDC patient-derived colon adenocarcinoma cell line growth inhibition [PI3K]
# Settings: for IC50: curve of first compound; for viability, T/C: stronger effect = lower value
# How it was run: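 Stroma-containing spheroids: tumor line, pooled-donor HUVEC, hMSC. Treatments: targeted agents with PI3K inhibitors. Dosing: clinically relevant, half-log spacing, 10 microM ceiling without known Cmax. Read-out: cell viability.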
# 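Further: spheroids exposed to agents for 7 days before viability read.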
# 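Wherever viability, T/C is given: 100% = DMSO vehicle treated spheroids.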
smiles,measurement,setting,value
CC(C)n1nc(-c2ccc3oc(N)nc3c2)c2c(N)ncnc21 + Cc1nc(NC(=O)N2CCCC2C(N)=O)sc1-c1ccnc(C(C)(C)C(F)(F)F)c1,IC50,second compound 0.0316 µM,> 100 nM
same,IC50,second compound 0.1 µM,> 100 nM
same,IC50,second compound 0.316 µM,> 100 nM
same,IC50,second compound 1 µM,> 100 nM
same,IC50,second compound 3.16 µM,> 100 nM
same,IC50,second compound 10 µM,37.5 nM
same,"viability, T/C","second compound 0.0316 µM, first compound 0.000316 µM",68.1%
same,"viability, T/C","second compound 0.0316 µM, first compound 0.001 µM",74%
same,"viability, T/C","second compound 0.0316 µM, first compound 0.00316 µM",59.7%
same,"viability, T/C","second compound 0.0316 µM, first compound 0.01 µM",67.7%
same,"viability, T/C","second compound 0.0316 µM, first compound 0.0316 µM",58.7%
same,"viability, T/C","second compound 0.0316 µM, first compound 0.1 µM",67.8%
same,"viability, T/C","second compound 0.1 µM, first compound 0.000316 µM",79.1%
same,"viability, T/C","second compound 0.1 µM, first compound 0.001 µM",64.5%
same,"viability, T/C","second compound 0.1 µM, first compound 0.00316 µM",65.4%
same,"viability, T/C","second compound 0.1 µM, first compound 0.01 µM",62.5%
same,"viability, T/C","second compound 0.1 µM, first compound 0.0316 µM",74%
same,"viability, T/C","second compound 0.1 µM, first compound 0.1 µM",75%
same,"viability, T/C","second compound 0.316 µM, first compound 0.000316 µM",86.9%
same,"viability, T/C","second compound 0.316 µM, first compound 0.001 µM",69%
same,"viability, T/C","second compound 0.316 µM, first compound 0.00316 µM",81.6%
same,"viability, T/C","second compound 0.316 µM, first compound 0.01 µM",64.7%
same,"viability, T/C","second compound 0.316 µM, first compound 0.0316 µM",60.9%
same,"viability, T/C","second compound 0.316 µM, first compound 0.1 µM",67.7%
same,"viability, T/C","second compound 1 µM, first compound 0.000316 µM",79.4%
same,"viability, T/C","second compound 1 µM, first compound 0.001 µM",61.1%
same,"viability, T/C","second compound 1 µM, first compound 0.00316 µM",61%
same,"viability, T/C","second compound 1 µM, first compound 0.01 µM",70.5%
same,"viability, T/C","second compound 1 µM, first compound 0.0316 µM",67.1%
same,"viability, T/C","second compound 1 µM, first compound 0.1 µM",63.6%
same,"viability, T/C","second compound 3.16 µM, first compound 0.000316 µM",72.2%
same,"viability, T/C","second compound 3.16 µM, first compound 0.001 µM",61.3%
same,"viability, T/C","second compound 3.16 µM, first compound 0.00316 µM",66.1%
same,"viability, T/C","second compound 3.16 µM, first compound 0.01 µM",65.9%
same,"viability, T/C","second compound 3.16 µM, first compound 0.0316 µM",69.7%
same,"viability, T/C","second compound 3.16 µM, first compound 0.1 µM",53.7%
same,"viability, T/C","second compound 10 µM, first compound 0.000316 µM",68.2%
same,"viability, T/C","second compound 10 µM, first compound 0.001 µM",74%
same,"viability, T/C","second compound 10 µM, first compound 0.00316 µM",65.8%
same,"viability, T/C","second compound 10 µM, first compound 0.01 µM",61.5%
same,"viability, T/C","second compound 10 µM, first compound 0.0316 µM",51.8%
same,"viability, T/C","second compound 10 µM, first compound 0.1 µM",41.1%
